A short description of this data set: log P(o/w), n-octanol/water two phase system. It counts as physicochemical. An excerpt:
*log P(o/w) is the decimal logarithm of the distribution coefficient
of a substance in the noctanol/water two phase system.

Turning to `CN(C)c1ccc(C=C(C#N)c2nc3cc(C(=O)O)ccc3o2)cc1` [Dye I-1], the log partition coefficient (logP) (commonly a log measure of how a compound divides between an organic and an aqueous phase) was less than 5. The figure for `Cc1cc(N(CC(=O)OC(C)COC(C)COC(C)(C)C)CC(=O)OC(C)COC(C)COC(C)(C)C)ccc1C=C(C#N)c1nc2cc(C(=O)O)ccc2o1` (centres unmarked) [Dye I-6] is less than 5. The figure for `CCOCCOCCN(CCOCCOCC)c1ccc(C=C(C#N)c2nc3cc(S(=O)(=O)NC(=O)CC)ccc3o2)cc1` [Dye I-10] is less than 5; for `CCOCCOCCN(CCOCCOCC)c1ccc(C=C(C#N)c2nc3cc(S(=O)(=O)NC(=O)CC)ccc3s2)cc1` [Dye I-22] it is less than 5; for `CCCCOC(=O)CN(CC(=O)OCCCC)c1ccc(C=C(C#N)C(=O)c2ccc(NS(C)(=O)=O)cc2)c(C)c1` [GF-2] it is less than 5.

The molecule `CCCCS(=O)(=O)Nc1ccc(C2=C(C#N)C(=O)OC2=Cc2ccco2)cc1` [GF-3] yielded a logP of less than 5. The figure for `CCCCCCCCCCCCCCCCS(=O)(=O)Nc1ccc2nc(C(C#N)=Cc3ccc(N(CC)CC)cc3C)sc2c1` [GF-4] is greater than 5; for `CCCCCCCCCCCCNc1cc(C)c(C=C(C#N)c2nc3ccc(NS(C)(=O)=O)cc3o2)cc1C` [GF-5] it is greater than 5.

For the origin of these results see patent US6057085A, “Color photographic recording material” (Agfa-Gevaert NV, priority 1997, dated 2000).
